Test results: patent US20040071707A1, “Modulation of cell growth” (priority 2000, published 2004)

Test system: HUVEC
Assay: In vitro endothelial cell proliferation assay
Type: cell-based, Human
Settings: for effect on anti-kringle 2 (7VPA) induced HUVEC proliferation: HUVEC stimulated with 700 nM (or 1400 nM) 7VPA, simultaneous addition
Procedure: Human umbilical vein endothelial cells (HUVEC) were purchased from Clonetics or isolated from umbilical vein cords by mild collagenase treatment as described and cultured in M199 with Earle's salts (Sigma) with 20% heat inactivated fetal bovine serum (Sigma), 100 IU/mL penicillin 100 μg/mL streptomycin (Gibco), 250 ng/mL fungizone (Gibco), 2 mM glutamine (Gibco), 5 IU/mL heparin (Sigma) and 50 μg/mL ECGS (Technoclone, Vienna, Austria). Human vascular smooth muscle cells (HVSMC) were isolated as described.
3×10^3 cells were plated in 96-well plates and allowed to attach overnight. Growth was arrested by incubation with 100 μL reduced growth medium (M199 with 2% FBS) for 24 h. Thereafter anti-tPA antibodies and other reagents were added to wells. K2P (Reteplase), anti-kringle 2 (7VPA) and anti-finger/EGF antibodies (3VPA and 6VPA) were a gift from Technoclone, Vienna, Austria. Anti-kringle 1 (PAM-2), anti-kringle 2 (ESP1) and anti-protease (374B and ESP2) antibodies were purchased from American Diagnostica, Alpha Labs, UK. D-mannitol and LY294002 were obtained from Sigma. VEGF121 and bFGF were purchased from R&D Systems Inc., UK. Recombinant single chain tPA (rsctPA) was obtained from Boehringher Ingelheim. The mutant alatPA was kindly provided by Prof. Roger Lijnen (Center for Molecular and Vascular Biology, Leuven, Belgium). Aprotinin was purchased from Boehringer Mannheim. The tPA peptides (tPA I and tPA II) corresponding to residues 7-17 and 15-26 respectively were synthesized by the Clinical Sciences Centre peptide synthesis facility at Hammersmith and the ICRF peptide unit. Rp-cAMPS and Lavendustin A were obtained from Calbiochem, UK. After 4 days of incubation cell number was quantified colorimetrically by the addition of 20 μL CellTiter 96 AQueous One Solution Cell Proliferation Assay (Promega) at 492 nm and 620 nm reference filter. Background absorbance was determined with substrate alone and subtracted from all wells.
HUVEC were plated at 1×10^5 cells in 12 well plates overnight. Medium was replaced with reduced growth medium overnight followed by addition of anti-K2 antibody. Control wells contained M199 and 2% FBS alone. After 3 days incubation cells were counted in a hemocytometer.

Row | Compound | effect on anti-kringle 2 (7VPA) induced HUVEC proliferation (4 days) | also measured
1 | O=C(O)c1cc(N(Cc2ccccc2O)Cc2cc(O)ccc2O)ccc1O [Lavendustin A, reference compound] | could inhibit | –
2 | Nc1ncnc2c1ncn2[C@@H]1O[C@@H]2CO[P@@](O)(=S)O[C@H]2[C@H]1O [Rp-cAMPS, reference compound] | could inhibit | –
3 | OC[C@@H](O)[C@@H](O)[C@H](O)[C@H](O)CO [mannitol, D-mannitol, reference compound] | – | effect on basal HUVEC/EC growth (substance alone) (M199 with 2% FBS, 4 days, colorimetric): No effect
4 | angiostatin [reference compound] | – | concentration giving 50% inhibition (HUVEC growth, bFGF 10 ng/mL (FIG. 4B)): 45 µg/mL
5 | aprotinin [reference compound] | could not block | –
